± gives the standard deviation of the averaged measurements.
Legend:
[1] = compound: CC(=O)NCC(=O)N1[C@@H]2CC[C@H]1c1ccc(Nc3ncc(C(F)(F)F)c(NC4CCC4)n3)cc12; assay: area under dose-response curve of surviving fraction (unscaled, Aref=0) (surviving fraction x log10(nM)); higher = more resistant; details: exposure time: 5 days; dose range 0.5-1000 nM
In short: (§1)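 Tumour cell lines in 384-well plates were exposed to eight inhibitor concentrations, from 0.5 to 1000 nM, for five days, and viability was read by CellTiter-Glo luminescence in three screens per line. Signals were normalised to DMSO-only wells, and 3-parameter logistic regression in the drc R package fitted dose-response survival curves to the surviving fractions. Area under the curve is given as the unscaled activity area. That area is taken over log10 dose with Aref = 0.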

CAMPTOTHECIN [2] = compound: T1, CC[C@@]1(O)C(=O)OCc2c1cc1n(c2=O)Cc2cc3ccccc3nc2-1 [CAMPTOTHECIN]; assay: as above; details: exposure time: 5 days; dose range 0.5-1000 nM
In short: as §1

OSI-906 = compound: C[C@]1(O)C[C@@H](c2nc(-c3ccc4ccc(-c5ccccc5)nc4c3)c3c(N)nccn32)C1 [OSI-906]; assay: as above; details: exposure time: 5 days; dose range 0.5-1000 nM
In short: as §1

GEFITINIB = compound: COc1cc2ncnc(Nc3ccc(F)c(Cl)c3)c2cc1OCCCN1CCOCC1 [GEFITINIB]; assay: as above; details: exposure time: 5 days; dose range 0.5-1000 nM
In short: as §1

PACLITAXEL = compound: CC(=O)O[C@H]1C(=O)[C@@]2(C)[C@H]([C@H](OC(=O)c3ccccc3)[C@]3(O)C[C@H](OC(=O)[C@H](O)[C@@H](NC(=O)c4ccccc4)c4ccccc4)C(C)=C1C3(C)C)[C@]1(OC(C)=O)CO[C@@H]1C[C@@H]2O [PACLITAXEL]; assay: as above; details: exposure time: 5 days; dose range 0.5-1000 nM
In short: as §1

CELECOXIB = compound: Cc1ccc(-c2cc(C(F)(F)F)nn2-c2ccc(S(N)(=O)=O)cc2)cc1 [CELECOXIB]; assay: as above; details: exposure time: 5 days; dose range 0.5-1000 nM
In short: as §1

CARBOPLATIN = compound: O=C(O)C1(C(=O)O)CCC1.[NH2-].[NH2-].[Pt+2] [CARBOPLATIN]; assay: as above; details: exposure time: 5 days; dose range 0.5-1000 nM
In short: as §1

[3] = compound: CC(=O)c1c(C)c2cnc(Nc3ccc(N4CCNCC4)cn3)nc2n(C2CCCC2)c1=O; assay: as above; details: exposure time: 5 days; dose range 0.5-1000 nM
In short: as §1

YM155 = compound: COCC[n+]1c2c(n(Cc3cnccn3)c1C)C(=O)c1ccccc1C2=O [YM155]; assay: as above; details: exposure time: 5 days; dose range 0.5-1000 nM
In short: as §1

CAMPTOTHECIN [4] = compound: T1, CAMPTOTHECIN; assay: surviving fraction relative to DMSO-only wells; higher = less growth inhibition; details: exposure time: 5 days
In short: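 Five days of continuous inhibitor exposure, at 0.5, 1, 5, 10, 50, 100, 500 and 1000 nM, followed a 24-hour period after log-phase tumour cell lines were seeded at 250–500 cells per well in 384-well plates. Surviving fraction was derived from CellTiter-Glo luminescence relative to the median of DMSO-only wells. Plates were read after 10 minutes at room temperature, and lines screened three times were kept only if replicate Pearson r >0.7 and median Z' >0.3.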

Test System | area under dose-response curve [1] | area under dose-response curve (CAMPTOTHECIN [2]) | area under dose-response curve (OSI-906) | area under dose-response curve (GEFITINIB) | area under dose-response curve (PACLITAXEL) | area under dose-response curve (CELECOXIB) | area under dose-response curve (CARBOPLATIN) | area under dose-response curve [3] | area under dose-response curve (YM155) | surviving fraction (CAMPTOTHECIN [4]; 0.5 nM) | surviving fraction (CAMPTOTHECIN [4]; 1 nM) | surviving fraction (CAMPTOTHECIN [4]; 5 nM) | surviving fraction (CAMPTOTHECIN [4]; 10 nM) | surviving fraction (CAMPTOTHECIN [4]; 50 nM) | surviving fraction (CAMPTOTHECIN [4]; 100 nM) | surviving fraction (CAMPTOTHECIN [4]; 500 nM) | surviving fraction (CAMPTOTHECIN [4]; 1000 nM)
MDAMB231 BREAST | 2.51 | 1.62 | 3.07 | 3.4 | 0.557 | 3.3 | 3.32 | 3.24 | 0.671 | 0.887 ± 0.025 | 0.902 ± 0.028 | 0.803 ± 0.04 | 0.603 ± 0.019 | 0.276 ± 0.0089 | 0.211 ± 0.007 | 0.0976 ± 0.004 | 0.0968 ± 0.0048
COLO320DM LARGE INTESTINE | 2.35 | 1.14 | 3 | 4.07 | 2.1 | 3.75 | 4.1 | 3.25 | 2.37 | 0.381 ± 0.011 | 0.929 ± 0.12 | 0.458 ± 0.026 | 0.38 ± 0.023 | 0.137 ± 0.003 | 0.263 ± 0.0072 | 0.138 ± 0.0052 | 0.127 ± 0.0051
OS25HAL BONE | 2.55 | 0.945 | 2.57 | 3.55 | 1.01 | 3.54 | 3.56 | 3.42 | 0.935 | 0.877 ± 0.013 | 0.862 ± 0.037 | 0.475 ± 0.03 | 0.145 ± 0.022 | 0.055 ± 0.001 | 0.0397 ± 0.0093 | 0.0247 ± 0.0032 | 0.037 ± 0.0069
SUM149.B1*.S BREAST | 3.06 | – | 2.99 | 3.6 | 1.21 | 3.73 | 3.85 | 3.76 | 1.66 | 0.467 ± 0.023 | 0.853 ± 0.024 | 0.692 ± 0.075 | 0.301 ± 0.021 | 0.0407 ± 0.0027 | 0.0422 ± 0.0024 | 0.0262 ± 0.0016 | 0.0295
T47D BREAST | 3.44 | 1.54 | 3.09 | 3.54 | 1.04 | 3.64 | 3.42 | 3.62 | 1.68 | 0.819 ± 0.035 | 0.878 ± 0.023 | 0.743 ± 0.019 | 0.528 ± 0.012 | 0.259 ± 0.013 | 0.236 ± 0.0055 | 0.157 ± 0.006 | 0.137 ± 0.0086
HOSMNG BONE | 2.83 | 1.82 | 3.13 | 3.45 | 1.85 | 3.18 | 3.65 | 3.41 | 1.76 | 0.889 ± 0.11 | 0.973 ± 0.035 | 0.863 ± 0.1 | 0.875 ± 0.042 | 0.322 ± 0.035 | 0.214 ± 0.0082 | 0.0427 ± 0.0038 | 0.0287 ± 0.0015
MDAMB134 BREAST | 3.57 | 2.11 | 2.32 | 3.62 | 2.33 | 3.59 | 3.15 | 3.84 | 2.43 | 0.662 ± 0.057 | 0.625 ± 0.048 | 0.66 ± 0.016 | 0.587 ± 0.031 | 0.602 ± 0.0085 | 0.594 ± 0.0057 | 0.587 ± 0.13 | 0.518 ± 0.044
OSHN BONE | 2.43 | 0.918 | 2.89 | 3.72 | 0.555 | 3.7 | 3.65 | 3.62 | 0.946 | 0.83 ± 0.013 | 0.842 ± 0.007 | 0.47 ± 0.079 | 0.108 ± 0.018 | 0.0807 ± 0.0076 | 0.0593 ± 0.012 | 0.0367 ± 0.0083 | 0.034 ± 0.0044

Reference: the supplement of paper PMC6045584
